Target: human P2X7 receptor (Homo sapiens (Human), UniProt Q99572, R270H)
Test: Evaluation of a human P2X7 receptor inhibitory activity (Yo-Pro uptake, BzATP stimulation, FLIPR TETRA)
Type: cell-based
Details: 1321N1 cells stably expressing human P2X7 receptor, Yo-Pro fluorescence
Experimental: Evaluation of a human P2X7 receptor inhibitory activity Stably expressing cell line (1321N1 cell transfected with the human P2X7 receptor gene (GenBank accession number NM_002562.5 including T606C and G952A SNP)) was used. The cells were seeded in a 384-well microtiter plate at a concentration of 8000 cells/well and cultured in the medium (10% fetal bovine serum, 25 mM HEPES, 1% penicillin and streptomycin in DMEM) for one day at 37° C. under 5% carbon dioxide atmosphere. After replacing with 20 μL of the HBSS buffer (20 mM HEPES, 55.6 mM D-glucose, 1× HBSS(−), pH7.4-7.5), 15 μL of 17.3 μM Yo-Pro solution in the HBSS buffer was added. The plate was placed in high-throughput cellular screening system FLIPR TETRA (Molecullar Devices, LLC.) and 15 μL of 130 μM BzATP solution in the HBSS buffer was added. Measurement of fluorescence intensity by FLIPR TETRA was started. After eight minutes, 15 μL of DMSO solutions containing different concentrations of the compound of the present invention as prepared by dilution with the HBSS buffer were dispensed to each well through the built-in automatic dispenser, and the measurement of fluorescence intensity was continued for 20 minutes. The maximum fluorescence intensity without the compound of the present invention is calculated as 0% inhibition and the maximum fluorescence intensity when the reference compound was added is calculated as 100% inhibition. Changing values of fluorescence intensity by the compound of the present invention were calculated by difference between maximum and minimum fluorescence intensity for 20 minutes. Inhibition ratios (%) were calculated from the following equation:
[formula] IC50 was calculated using logistic approximation.
As for IC50 value, value to below 10 nmol/L is represented as “A”, value from 10 nmol/L to below 100 nmol/L is represented as “B”, value from 100 nmol/L to below 500 nmol/L is represented as “C”, and value from 500 nmol/L to below 1 μmol/L is represented as “D”.

human P2X7 receptor, sequence (Q99572 whole entry R270H): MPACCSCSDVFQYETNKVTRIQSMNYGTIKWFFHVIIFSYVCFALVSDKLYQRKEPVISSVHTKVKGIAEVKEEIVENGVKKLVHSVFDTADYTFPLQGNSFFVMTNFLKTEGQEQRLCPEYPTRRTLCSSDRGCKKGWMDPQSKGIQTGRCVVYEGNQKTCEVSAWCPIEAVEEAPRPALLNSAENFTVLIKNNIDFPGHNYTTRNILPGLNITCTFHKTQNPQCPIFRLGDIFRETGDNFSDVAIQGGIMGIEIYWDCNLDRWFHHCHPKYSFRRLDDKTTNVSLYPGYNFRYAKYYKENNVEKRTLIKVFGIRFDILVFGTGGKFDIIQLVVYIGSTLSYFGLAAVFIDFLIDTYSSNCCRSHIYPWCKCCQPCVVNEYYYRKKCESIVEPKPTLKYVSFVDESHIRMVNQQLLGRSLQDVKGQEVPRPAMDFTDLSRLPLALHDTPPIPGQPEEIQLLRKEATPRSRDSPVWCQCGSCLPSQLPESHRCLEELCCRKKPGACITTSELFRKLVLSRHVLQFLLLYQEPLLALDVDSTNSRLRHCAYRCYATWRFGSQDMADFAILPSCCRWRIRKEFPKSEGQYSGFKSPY

Compound	IC50 [µM]	IC50 (class symbols) [µM]
Cc1c(Cl)cccc1Nc1nc(=O)cc2n1C(c1ccccc1)COC2 (single isomer, unassigned) [Compound I-0003]	0.0018	
O=c1cc2n(c(Nc3cccc4ncccc34)n1)C(c1ccccc1)CO2 (centres unmarked) [Compound I-0001]	0.016	
Cc1c(Cl)cccc1Nc1nc(=O)cc2n1C(c1ccccc1)CO2 (centres unmarked) [Compound I-0002]		< 0.01
Cc1ccccc1Nc1nc(=O)cc2n1C(c1ccccc1)CCC2 (centres unmarked) [Compound I-0004]	0.037	
Cc1c(Cl)cccc1Nc1nc(=O)cc2n1C(c1ccccc1)CCC2 (centres unmarked) [Compound I-0005]		0.01 to 0.1
Cc1c(Cl)cccc1Nc1nc(=O)cc2n1C(c1ccccc1)CCO2 (centres unmarked) [Compound I-0006]		0.01 to 0.1
Cc1c(Cl)cccc1Nc1nc(=O)cc2n1C(c1ccccc1)CC2 (centres unmarked) [Compound I-0007]		< 0.01
Cc1c(Cl)cccc1Nc1nc(=O)cc2n1C(c1cccc(Cl)c1)CC2 (centres unmarked) [Compound I-0008]		< 0.01
COc1c2n(c(Nc3cccc(Cl)c3C)nc1=O)C(c1ccccc1)CCO2 (centres unmarked) [Compound I-0009]	0.022	
COc1cc(C)c(Nc2nc(=O)cc3n2C(c2ccccc2)CC3)cc1OC (centres unmarked) [Compound I-0010]		< 0.01
Cc1cc(Nc2nc(=O)cc3n2C(c2ccccc2)CC3)c(C)cc1Cl (centres unmarked) [Compound I-0011]		< 0.01
Cc1cc(Nc2nc(=O)cc3n2C(c2ccc(F)c(Cl)c2)CC3)c(C)cc1Cl (centres unmarked) [Compound I-0012]		< 0.01
COc1cc(C)c(Nc2nc(=O)cc3n2C(c2ccc(F)c(Cl)c2)CC3)cc1OC (centres unmarked) [Compound I-0013]		< 0.01
COc1ccc(Nc2nc(=O)cc3n2C(c2ccccc2)CC3)c(C)c1 (centres unmarked) [Compound I-0014]		< 0.01
Cc1ccccc1Nc1nc(=O)cc2n1C(c1ccccc1)CC2 (centres unmarked) [Compound I-0015]		0.01 to 0.1
COc1ccc(C)c(Nc2nc(=O)cc3n2C(c2ccccc2)CC3)c1 (centres unmarked) [Compound I-0016]		0.01 to 0.1
COc1cc(C)c(Nc2nc(=O)cc3n2C(c2ccc(F)cc2)CC3)cc1OC (centres unmarked) [Compound I-0017]		0.01 to 0.1
COc1cc(C)c(Nc2nc(=O)cc3n2C(c2cccc(F)c2)CC3)cc1OC (centres unmarked) [Compound I-0018]		0.01 to 0.1
COc1ccc(Nc2nc(=O)cc3n2C(c2ccccc2)CC3)cc1OC (centres unmarked) [Compound I-0019]		< 0.01
COc1cc(C)c(Nc2nc(=O)cc3n2C(c2ccccc2)CC3)cc1C (centres unmarked) [Compound I-0020]		< 0.01
COc1cc(C)c(Nc2nc(=O)cc3n2C(c2cc(F)c(F)c(F)c2)CC3)cc1OC (centres unmarked) [Compound I-0021]		0.01 to 0.1
COc1cc(Nc2nc(=O)cc3n2C(c2ccccc2)CC3)c(C)cc1F (centres unmarked) [Compound I-0022]		< 0.01
COc1ccc(Nc2nc(=O)cc3n2C(c2ccc(F)cc2)CC3)c(C)c1 (centres unmarked) [Compound I-0023]		< 0.01
COc1cc(C)c(Nc2nc(=O)cc3n2C(c2ccccc2)CC3)cc1F (centres unmarked) [Compound I-0024]		0.01 to 0.1

Compound	IC50 [µM]	IC50 (class symbols) [µM]
COc1cc(C)c(Nc2nc(=O)cc3n2C(c2ccc(F)c(F)c2)CC3)cc1OC (centres unmarked) [Compound I-0025]		0.01 to 0.1
Cc1nc2cc(C)c(Nc3nc(=O)cc4n3C(c3ccc(F)cc3)CC4)cc2s1 (centres unmarked) [Compound I-0026]		< 0.01
COc1cc(Nc2nc(=O)cc3n2C(c2ccccc2)CC3)c(C)cc1Cl (centres unmarked) [Compound I-0027]		< 0.01
COc1cc(C)c(Nc2nc(=O)cc3n2C(c2ccccc2)CC3)cc1Cl (centres unmarked) [Compound I-0028]		< 0.01
Cc1nc2cc(C)c(Nc3nc(=O)cc4n3[C@H](c3ccccc3)CC4)cc2s1 [Compound I-0029]		< 0.01
COc1cc(C)c(Nc2nc(=O)cc3n2C(c2ccccc2)CC3)cn1 (centres unmarked) [Compound I-0030]		0.1 to 0.5
COc1cc(C)c(Nc2nc(=O)c(OC)c3n2C(c2ccccc2)CC3)cc1C (centres unmarked) [Compound I-0031]		0.01 to 0.1
COc1c2n(c(Nc3cc4sc(C)nc4cc3C)nc1=O)C(c1ccccc1)CC2 (centres unmarked) [Compound I-0032]	0.016	
COc1cc(Nc2nc(=O)cc3n2C(c2ccc(F)cc2)CC3)c(C)cc1Cl (centres unmarked) [Compound I-0033]		0.01 to 0.1
COc1ccc(Nc2nc(=O)cc3n2C(c2ccccc2)CC3)c(C)n1 (centres unmarked) [Compound I-0034]		0.01 to 0.1
COc1cc(Nc2nc(=O)cc3n2C(c2ccccc2)CC3)c(C)cn1 (centres unmarked) [Compound I-0035]		0.1 to 0.5
COc1c2n(c(Nc3cc4sc(C)nc4cc3C)nc1=O)C(c1ccc(F)cc1)CC2 (centres unmarked) [Compound I-0036]		0.01 to 0.1
COc1ccc(Nc2nc(=O)cc3n2C(c2ccc(F)c(Cl)c2)CC3)c(C)c1 (centres unmarked) [Compound I-0037]		< 0.01
COc1ccc(Nc2nc(=O)cc3n2C(c2cc(F)cc(F)c2)CC3)c(C)c1 (centres unmarked) [Compound I-0038]		< 0.01
CCc1cc(Nc2nc(=O)cc3n2C(c2ccccc2)CC3)c(C)cc1OC (centres unmarked) [Compound I-0039]		< 0.01
Cc1cc2c(cc1Nc1nc(=O)cc3n1C(c1ccccc1)CC3)COC2 (centres unmarked) [Compound I-0040]		0.01 to 0.1
COc1ccc(Nc2nc(=O)cc3n2C(c2ccc(F)c(F)c2)CC3)c(C)c1 (centres unmarked) [Compound I-0041]		< 0.01
COc1ccc(Nc2nc(=O)cc3n2C(c2cc(F)c(F)c(F)c2)CC3)c(C)c1 (centres unmarked) [Compound I-0042]		< 0.01
COc1nc(C)c(Nc2nc(=O)cc3n2C(c2ccccc2)CC3)cc1C (centres unmarked) [Compound I-0043]		< 0.01
COc1cc(Nc2nc(=O)c(OC)c3n2C(c2ccccc2)CC3)c(C)cc1Cl (centres unmarked) [Compound I-0044]		0.01 to 0.1
COc1cc(Nc2nc(=O)c(OC)c3n2C(c2ccccc2)CC3)c(C)cc1F (centres unmarked) [Compound I-0045]		0.01 to 0.1
COc1ccc(Nc2nc(=O)c(F)c3n2C(c2ccccc2)CC3)c(C)c1 (centres unmarked) [Compound I-0046]		0.01 to 0.1
COc1ccc(Nc2nc(=O)cc3n2C(c2cc(F)cc(F)c2)CC3)c(C)n1 (centres unmarked) [Compound I-0047]		0.01 to 0.1
COc1ccc(Nc2nc(=O)cc3n2C(c2cc(F)c(F)c(F)c2)CC3)c(C)n1 (centres unmarked) [Compound I-0048]		0.01 to 0.1

Compound	IC50 [µM]	IC50 (class symbols) [µM]
COc1ccc(Nc2nc(=O)cc3n2C(c2cccc(F)c2)CC3)c(C)c1 (centres unmarked) [Compound I-0049]		< 0.01
COc1ccc(Nc2nc(=O)cc3n2C(c2cccc(Cl)c2)CC3)c(C)c1 (centres unmarked) [Compound I-0050]		< 0.01
COc1nc(C)c(Nc2nc(=O)cc3n2C(c2cc(F)cc(F)c2)CC3)cc1C (centres unmarked) [Compound I-0051]		0.01 to 0.1
COc1ccc(Nc2nc(=O)c(OC)c3n2C(c2ccccc2)CC3)c(C)c1 (centres unmarked) [Compound I-0052]		0.01 to 0.1
Cc1nc2cc(C)c(/N=c3\[nH]c(=O)cc4n3C(c3cc(F)cc(F)c3)CC4)cc2s1 (centres unmarked) [Compound I-0053]		0.01 to 0.1
Cc1nc2cc(C)c(/N=c3\[nH]c(=O)c(F)c4n3C(c3ccc(F)cc3)CC4)cc2s1 (centres unmarked) [Compound I-0054]		< 0.01
CCOc1ccc(Nc2nc(=O)cc3n2C(c2cc(F)cc(F)c2)CC3)c(C)n1 (centres unmarked) [Compound I-0055]		0.01 to 0.1
Cc1cc(OC(F)F)ccc1/N=c1\[nH]c(=O)cc2n1C(c1cc(F)cc(F)c1)CC2 (centres unmarked) [Compound I-0056]		0.01 to 0.1
Cc1cc(OC(F)F)ccc1/N=c1\[nH]c(=O)c(F)c2n1C(c1ccc(F)cc1F)CC2 (centres unmarked) [Compound I-0057]		0.01 to 0.1
Cc1nc2cc(C)c(Nc3nc(=O)c(F)c4n3C(c3ccc(F)cc3F)CC4)cc2s1 (centres unmarked) [Compound I-0058]		< 0.01
CCc1nc(OC)ccc1Nc1nc(=O)cc2n1C(c1cc(F)cc(F)c1)CC2 (centres unmarked) [Compound I-0059]	0.011	0.01 to 0.1
COc1ccc(C)c(/N=c2\[nH]c(=O)cc3n2C(c2cc(F)cc(F)c2)CC3)c1 (centres unmarked) [Compound I-0061]		0.01 to 0.1
COc1cc(/N=c2\[nH]c(=O)c(F)c3n2C(c2ccc(F)cc2F)CC3)c(C)cc1F (centres unmarked) [Compound I-0062]		0.01 to 0.1
COc1cc(/N=c2\[nH]c(=O)cc3n2C(c2cc(F)cc(F)c2)CC3)c(C)cc1F (centres unmarked) [Compound I-0063]		0.01 to 0.1
COc1ccc(Nc2nc(=O)c(F)c3n2C(c2ccc(F)cc2F)CC3)c(C)c1 (centres unmarked) [Compound I-0064]		0.01 to 0.1
Cc1cc(OC(F)F)c(C)cc1/N=c1\[nH]c(=O)cc2n1C(c1ccccc1)CC2 (centres unmarked) [Compound I-0065]		< 0.01
Cc1cc2c(cc1Nc1nc(=O)cc3n1C(c1cc(F)cc(F)c1)CC3)COC2 (centres unmarked) [Compound I-0066]		< 0.01
Cc1cc2c(cc1Nc1nc(=O)cc3n1C(c1ccc(F)cc1)CC3)COC2 (centres unmarked) [Compound I-0067]		< 0.01
COc1ccc(/N=c2\[nH]c(=O)c(F)c3n2C(c2ccc(F)cc2F)CC3)c(C)n1 (centres unmarked) [Compound I-0068]		0.01 to 0.1
COc1ccc(/N=c2\[nH]c(=O)c(F)c3n2C(c2ccc(F)cc2)CC3)c(C)n1 (centres unmarked) [Compound I-0069]	0.01	
COc1ccc(/N=c2\[nH]c(=O)cc3n2C(c2ccc(F)cc2)CC3)c(C)n1 (centres unmarked) [Compound I-0070]		0.01 to 0.1
COc1cnc(C)c(Nc2nc(=O)cc3n2C(c2cc(F)cc(F)c2)CC3)c1 (centres unmarked) [Compound I-0071]		0.01 to 0.1
